Tested on: whole plants
Test: Herbicidal activity on whole plants
Type: in vivo

SMILES: Cc1nc2c(F)c(F)ccc2cc1Oc1cccc(F)c1C(C)(C)O [ipflufenoquin]
- herbicidal effectiveness: ineffective

Reference: paper PMC10691210 (Proceedings of the National Academy of Sciences of the …, 2023)
